Experimental findings from patent US12410152B2, “Oxazole and thioazole-type cullin ring ubiquitin ligase compounds and uses thereof” (Proxygen GmbH, priority 2019, dated 2025) are described below.

This test concerns KBM7 WT cells (global proteome). Description: Quantitative expression proteomics (TMT isobaric tagging), drug vs DMSO. Type of test: cell-based, human. From the text: The mechanism by which the assayed molecules re-program a functional CRL4B complex based on the data shown could be that drug binding to CUL4B recruits a neo-substrate directly to the cullin backbone. Alternatively, drug binding could stabilize CUL4B function to boost time intervals where a functionally competent CUL4B complexes can be formed. Here, the word “functional” implies that the CUL4B backbone of this complex needs to be neddylated, and a CUL4B associated E2 ubiquitin-conjugating enzyme (UBE2G1) needs to be bound. FIG. 9 outlines one possible mechanism. Both predicted mechanisms of action would result in a functionally altered CRL4B complex, and thus an altered stability of drug-induced (neo-) substrates. In order to identify target proteins with a decreased abundance or, in other words, target proteins that become degraded by CRL4B after drug treatment, global proteome composition was measured using quantitative expression proteomics (TMT-labeling). In brief, KBM7 cells were drug treated for 12 hours, lysed, and subjected to isobaric tagging. Ensuing proteomics analysis quantified a total of 7,903 proteins at a minimum spectral count of 2. […] Data on essentiality are taken from Hart et al., G3, August 2017 (PMID: 28655737).
50×10^6 KBM7^WT cells per condition were collected, washed four times with ice-cold PBS, the supernatant aspirated and pellets snap-frozen in liquid N2. Each washed cell pellet was lysed separately in 40 μL of freshly prepared lysis buffer as previously described (see Mayor-Ruiz et al., Mol Cell 2019)
Offline Fractionation via RP-HPLC at high pH and 2D-RP/RP Liquid Chromatography Mass Spectrometry were performed as previously described (see Mayor-Ruiz et al., Mol Cell 2019).
Acquired raw data files were processed using the Proteome Discoverer 2.2.0 platform, utilizing the Sequest HT database search engine and Percolator validation software node (V3.04) to remove false positives with a false discovery rate (FDR) of 1% on peptide and protein level under strict conditions. Searches were performed with full tryptic digestion against the human SwissProt database v2017.06 with up to two allowed miscleavage sites. Oxidation (+15.9949 Da) of methionine was set as variable modification, whilst carbamidomethylation (+57.0214 Da) of cysteine residues and TMT 6-plex labelling of peptide N-termini and lysine residues were set as fixed modifications. Data was searched with mass tolerances of ±10 ppm and ±0.02 Da on the precursor and fragment ions, respectively. Results were filtered to include peptide spectrum matches (PSMs) with Sequest HT cross-correlation factor (Xcorr) scores of […] and high peptide confidence assigned by Percolator. MS^2 signal-to-noise values (S/N) values of TMT reporter ions were used to estimate peptide/protein abundance changes. PSMs with precursor isolation interference values of ≥ 50% and average TMT-reporter ion S/N≤10 were excluded from quantitation. Only unique peptides were used for TMT quantitation as well as for TOP3 label-free quantitation. Isotopic impurity correction and TMT channel-normalization based on total peptide amount were applied. For statistical analysis and p-value calculation, the integrated ANOVA hypothesis test was used. TMT ratios with p-values below 0.01 were considered as significant. Only proteins with >1 peptide detected and >1 unique peptide detected were considered for further analysis. For the calling of destabilized proteins, a log 2 fold change threshold (drug/DMSO) of −0.3 was applied.
Comparison of overall proteome-wide changes in KBM7 cells treated with IC020772.1 (2.5 μM), IC021313.2 (7 μM) or T6938051 (3.5 μM) for 5 h and 12h, using quantitative proteomics based on isobaric tagging.
The protein names in Table 4, Table 5 and Table 6 refer to the protein names as provided by HUGO Gene Nomenclature Committee (HGNC) database. […]

On to `Cc1ccc(C(=O)N2CSCC2C(=O)N=c2[nH]cc(C)s2)o1` (centres unmarked) [Compound T6938051], for which the “number of proteins significantly downregulated (log2FC < -0.3), destabilized proteins” value (KBM7 cells, 12 hours, ~10xEC50, 7,903 proteins quantified) was 793. Further, the “number of downregulated proteins known to be implicated in KBM7 proliferation (essential for KBM7 viability)” value (KBM7 cells, 12 hours, essentiality from Hart et al. 2017) is 142. For the setting “T6938051 vs DMSO”, the “number of proteins with log2FC < −0.3” value is given as “T6938051: 793 proteins”. Moreover, the “number of essential proteins among proteins with log2FC < −0.3” value (T6938051 vs DMSO, essential = implicated in KBM7 proliferation) is listed as “log2FC < −0.3 (142 essential proteins)”. Moreover, under “protein ABCF2 (accession Q9UG63-2), expression proteomics, drug vs DMSO, essential: false”, the “log2FC (T6938051/DMSO)” value was −0.3004.
